target: T1, human URAT1 (Homo sapiens, UniProt Q96S37); assay: Test for inhibition of uric acid transport using human URAT1-expressing cells;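 also: three stars up to 0.2 µM two stars 0.2-2 µM one star 2-20 µM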; format: cell-based; conditions: HEK 293 cells expressing human URAT1; 14C-labeled uric acid 25 μM; uptake 37° C. for 5 min
T1 construct: Full-length cDNA of human URAT1 (hURAT1)
T1 sequence (Q96S37 1-553): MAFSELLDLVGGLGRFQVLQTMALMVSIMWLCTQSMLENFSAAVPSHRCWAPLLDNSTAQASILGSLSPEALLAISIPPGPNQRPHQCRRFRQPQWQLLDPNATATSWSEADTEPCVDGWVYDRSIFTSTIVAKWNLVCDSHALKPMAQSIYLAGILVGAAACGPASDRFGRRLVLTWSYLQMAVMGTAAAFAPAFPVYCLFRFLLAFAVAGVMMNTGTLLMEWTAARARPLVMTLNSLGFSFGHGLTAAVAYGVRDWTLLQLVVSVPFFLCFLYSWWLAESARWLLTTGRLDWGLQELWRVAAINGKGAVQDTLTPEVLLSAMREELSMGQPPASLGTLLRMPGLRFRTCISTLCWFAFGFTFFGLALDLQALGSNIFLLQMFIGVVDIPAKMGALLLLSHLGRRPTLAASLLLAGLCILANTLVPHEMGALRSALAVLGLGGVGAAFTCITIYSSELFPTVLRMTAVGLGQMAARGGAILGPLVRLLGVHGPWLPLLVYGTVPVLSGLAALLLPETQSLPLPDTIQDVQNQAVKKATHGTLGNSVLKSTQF
In short: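 IC50 values reflect inhibition of ¹⁴C-uric acid uptake (25 μM final, 5 min, 37 °C) by compound. Cells were HEK293 stably expressing full-length human URAT1, preincubated in Na-gluconate-substituted HBSS. Radioactivity in lysates was expressed relative to DMSO control as 100%.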

SMILES	Inhibitory Activity (IC50 of uric acid transport inhibition)
Cc1ccc(Cn2c(-c3cccnc3)nc(C3CC3)c2C(=O)O)c2ccccc12 [Compound A18, 4-cyclopropyl-1-((4-methylnaphthalen-1-yl)methyl)-2-(pyridin-3-yl)-1H-imidazole-5-carboxylic acid]	* * *
Cc1nc(-c2cncc(Cl)c2)n(C(C)c2cc(Cl)ccc2Cl)c1C(=O)O (centres unmarked) [Compound A223, 2-(5-chloropyridin-3-yl)-1-(1-(2,5-dichlorophenyl)ethyl)-4-methyl-1H-imidazole-5-carboxylic acid]	* *
O=C(O)c1nc(-c2cncc(Cl)c2)n(Cc2cc(Cl)ccc2Cl)c1C(=O)O [Compound A210, 2-(5-chloropyridin-3-yl)-1-(2,5-dichlorobenzyl)-1H-imidazole-4,5-dicarboxylic acid]	* * *
Cc1nc(-c2cccnc2)n(Cc2csc3cccc(C(F)(F)F)c23)c1C(=O)O [Compound A6, 4-methyl-2-(pyridin-3-yl)-1-((4-(trifluoromethyl)benzo[b]thiophen-3-yl)-methyl)-1H-imidazole-5-carboxylic acid]	* *
CN1CCN(Cc2nc(-c3cncc(Cl)c3)n(Cc3cc(Cl)ccc3Cl)c2C(=O)O)CC1 [Compound A197, 2-(5-chloropyridin-3-yl)-1-(2,5-dichlorobenzyl)-4-((4-methylpiperazine-1-yl)methyl)-1H-imidazole-5-carboxylic acid]	* * *
Cc1nc(-c2cncc(C(F)(F)F)c2)n(Cc2csc3cccc(Cl)c23)c1C(=O)O [Compound A143, 1-((4-chlorobenzo[b]thiophen-3-yl)methyl)-4-methyl-2-(5-(trifluoromethyl)pyridin-3-yl)-1H-imidazole-5-carboxylic acid]	* * *
Cc1cncc(-c2nc(C(C)(C)O)c(C(=O)O)n2Cc2cc(Cl)ccc2Cl)c1 [Compound A214, 1-(2,5-dichlorobenzyl)-4-(2-hydroxypropan-2-yl)-2-(5-methylpyridine-3-yl)-1H-imidazole-5-carboxylic acid]	* * *
Cc1cncc(-c2nc(C)c(C(=O)O)n2Cc2cc(C)ccc2Cl)c1 [Compound A231, 1-(2-chloro-5-methylbenzyl)-4-methyl-2-(5-methylpyridin-3-yl)-1H-imidazole-5-carboxylic acid]	* * *
CCCN1CCN(Cc2nc(-c3cncc(Cl)c3)n(Cc3cc(Cl)ccc3Cl)c2C(=O)O)CC1 [Compound A202, 2-(5-chloropyridin-3-yl)-1-(2,5-dichlorobenzyl)-4-((4-propylpiperazin-1-yl)methyl)-1H-imidazole-5-carboxylic acid]	* * *
CCC(O)(CC)c1nc(-c2cncc(F)c2)n(Cc2cc(Cl)ccc2Cl)c1C(=O)O [Compound A215, 1-(2,5-dichlorobenzyl)-2-(5-fluoropyridin-3-yl)-4-(3-hydroxypentan-3-yl)-1H-imidazole-5-carboxylic acid]	* * *
Cc1nc(-c2cncc(-c3ccccc3)c2)n(Cc2cc(Cl)ccc2Cl)c1C(=O)O [Compound A176, 1-(2,5-dichlorobenzyl)-4-methyl-2-(5-phenylpyridin-3-yl)-1H-imidazole-5-carboxylic acid]	* * *
O=C(O)c1c(CN2CCCCC2)nc(-c2cncc(Cl)c2)n1Cc1cc(Cl)ccc1Cl [Compound A195, 2-(5-chloropyridin-3-yl)-1-(2,5-dichlorobenzyl)-4-(piperidin-1-ylmethyl)-1H-imidazole-5-carboxylic acid]	* * *
Cc1nc(-c2cccnc2)n(Cc2cc(Cl)ccc2C(F)(F)F)c1C(=O)O [Compound A44, 1-(5-chloro-2-(trifluoromethyl)benzyl)-4-methyl-2-(pyridin-3-yl)-1H-imidazole-5-carboxylic acid]	* *
Cc1nc(-c2cncc(O)c2)n(Cc2cc(Cl)ccc2Cl)c1C(=O)O [Compound A172, 1-(2,5-dichlorobenzyl)-2-(5-hydroxypyridin-3-yl)-4-methyl-1H-imidazole-5-carboxylic acid]	* *
CCS(=O)(=O)N1CCN(Cc2nc(-c3cncc(Cl)c3)n(Cc3cc(Cl)ccc3Cl)c2C(=O)O)CC1 [Compound A204, 2-(5-chloropyridin-3-yl)-1-(2,5-dichlorobenzyl)-4-((4-(ethylsulfonyl)piperazin-1-yl)methyl)-1H-imidazole-5-carboxylic acid]	* * *
CCC(O)(CC)c1nc(-c2cncc(Cl)c2)n(Cc2cc(Cl)ccc2Cl)c1C(=O)O [Compound A216, 2-(5-chloropyridin-3-yl)-1-(2,5-dichlorobenzyl)-4-(3-hydroxypentane-3-yl)-1H-imidazole-5-carboxylic acid]	* * *
Cc1nc(-c2cccnc2F)n(Cc2cc(Cl)ccc2Cl)c1C(=O)O [Compound A160, 1-(2,5-dichlorobenzyl)-2-(2-fluoropyridin-3-yl)-4-methyl-1H-imidazole-5-carboxylic acid]	* *
O=C(O)c1ccc(-c2cccnc2)n1Cc1csc2ccccc12 [Compound B8, 1-(benzo[b]thiophen-3-ylmethyl)-2-(pyridin-3-yl)-1H-pyrrole-5-carboxylic acid]	* * *
CSc1cncc(-c2nc(C)c(C(=O)O)n2Cc2cc(Cl)ccc2Cl)c1 [Compound A182, 1-(2,5-dichlorobenzyl)-4-methyl-2-(5-(methylthio)pyridin-3-yl)-1H-imidazole-5-carboxylic acid]	* * *
Cc1nc(-c2cncc(Cl)c2)n(Cc2csc3ccccc23)c1C(=O)O [Compound A132, 1-(benzo[b]thiophen-3-ylmethyl)-2-(5-chloropyridin-3-yl)-4-methyl-1H-imidazole-5-carboxylic acid]	* *
Cc1cncc(-c2ccc(/C=C/C(=O)O)n2Cc2cc(Cl)ccc2Cl)c1 [Compound B34, (E)-3-(1-(2,5-dichlorobenzyl)-2-(5-methylpyridin-3-yl)-1H-pyrrol-5-yl)acrylic acid]	* * *

same assay, conditions: HEK 293 cells expressing human URAT1; 14C-labeled uric acid 25 μM; uptake 37° C. for 5 min; read-out: Inhibitory Activity (IC50 of uric acid transport inhibition)

SMILES	IC50 [µM]
Cc1cncc(-c2nc(C)c(C(=O)O)n2Cc2cccc3ccccc23)c1 [Compound A124]	2 to 20
Cc1nc(-c2cncc(OCCCO)c2)n(Cc2cc(Cl)ccc2Cl)c1C(=O)O [Compound A187]	2 to 20
Cc1nc(-c2cccnc2)n(Cc2ccccc2C(F)(F)F)c1C(=O)O [Compound A60]	2 to 20
Cc1ccc2ccccc2c1Cn1c(-c2cccnc2)nc(C)c1C(=O)O [Compound A4]	2 to 20
Cc1cncc(-c2nc(C)c(C(=O)O)n2C(C)c2cc(Cl)ccc2Cl)c1 (centres unmarked) [Compound A224]	2 to 20
Cc1ccccc1Cn1c(-c2cccnc2)nc(C)c1C(=O)O [Compound A57]	2 to 20
Cc1nc(-c2cccnc2)n(Cc2cccc(C(F)(F)F)c2)c1C(=O)O [Compound A61]	2 to 20
Cc1nc(-c2cccnc2)n(Cc2ccccc2C#N)c1C(=O)O [Compound A64]	2 to 20
